Laboratory results reported in patent publication US6482827B1, “Matrix metalloproteinase inhibitors” (Pharmacia & Upjohn S.p.A., priority 1997, dated 2002).

Assays:
[1] = biological target: T1, Human collagenase (MMP-1) (Homo sapiens, UniProt P03956); assay: Biochemical assay (Protocol A), Ki at steady state, MMP-1; conditions: preincubation, 37° C., pH=7.4, read-out: Ki at steady state (Ki*) for inhibition of MMP-1
T1 sequence (P03956 101-269): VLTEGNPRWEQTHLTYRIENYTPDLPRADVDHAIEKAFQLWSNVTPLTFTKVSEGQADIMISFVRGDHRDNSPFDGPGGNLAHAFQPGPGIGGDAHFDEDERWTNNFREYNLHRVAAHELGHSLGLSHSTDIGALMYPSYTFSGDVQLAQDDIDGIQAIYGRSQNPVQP
Protocol: (§1) Human gelatinase-A (MMP-2) was obtained as pro-enzyme (72 kDa) and was activated with 1 mM 4-aminophenylmercuric acetate for 30 min at 37° C. immediately prior to use. Human stromelysin-1-255 (MMP-3) was obtained as a recombinant pro-enzyme isolated from E. coli and activated by heat (1 h, 55° C.).
(§2) The substrate was the commercial quenched-fluorescence peptide Mca-Pro-Leu-Gly-Leu-Dpa-Ala-Arg-NH2, that is (7-methoxycoumarin4-yl)Acetyl-Pro-Leu-Glv-Leu-(3-[2,4-dinitrophenyl]-L-2,3-diamino-propionyl)-Ala-Arg-NH2 (C. G. Knight et al., FEBS Lett.296:263, 1992). The enzymes cleave at the Gly-Leu bond, removing the internally quenching Dpa group. Release of the highly fluorescent peptide Mca-Pro-Leu was followed fluorimetrically at 37° C. using a Perkin Elmer LS-50 Fluorescence Spectrophotometer fitted with a thermostatted four position stirring cell changer. The excitation wavelength was set at 326 nm (bandwidth 5 nm) and the emission at 392 nm (bandwidth 20 nm). Km values of this substrate for the three MMP's is 70 μM or more (Knight et al., reference above). Substrate concentration was 2 μM in the tests, so that we could approximate to unit the term (1+[substrate]/KM) in calculations. The substrate was stable for over 60 minutes in the assay conditions, giving no appreciable increment of fluorescence. Full response was adjusted against 200 nM Mca-Pro-Leu-OH (the released fluorescent peptide) and the instrument was calibrated in the range 0-100 nM Mca-Pro-Leu-OH, corresponding to 0-5% extent of hydrolysis of the 2 μM substrate. The aqueous assay buffer was 50 mM Tris/HCl pH=7.4 containing 0.15 M NaCl, 10 mM CaCl2, 0.01 mM ZnCl2 and 0.05% Brij 35. The concentration of the activated enzyme was determined by titration against representative inhibitors described in the literature and synthesized in house: Roche Ro31-9790 (N. G. Knebel et al., J. Chromatogr. B 673:213, 1995) for MMP-1, and Celltech CT-1418 (compound 1 in S. K. Chander, J. Pharm. Sci. 84:404, 1995) for MMP-2 and MMP-3. Enzyme concentrations in the tests were set at 1.0 nM for MMP-1, 0.04 nM for MMP-2, and 3.0 nM for M-3. Under our assay conditions, we measured keat/KM values of 26900, 669000 and 9740 1/(M×s) for MMP-1, MMP-2 and MMP-3, respectively. All the three enzymes were found stable for over three hours in the assay conditions.
(§3) The inhibition constant for compounds of the present invention was measured at steady state (Ki*; see J. F. Morrison and C. T. Walsh, Adv. Enzymol. Relat. Areas Mol. Biol. 61:201, 1988), upon preincubation experiment, by measuring V0, the initial rate in the absence of inhibitor, and Vs, the steady-state velocity, at different concentrations of inhibitors in the region of their enzyme-inhibitor dissociation constants.
(§4) On a routine basis, 1.94 mL of assay buffer was pre-heated at 37° C. in a vial, 0.02 mL of inhibitor in DMSO (or DMSO only), and 0.02 ml of 100 nM MMP-1 or 4 nM MMP-2 or 300 nM MMP-3 were added, mixed, and the vial was held at 37° C. for 5-180 minutes. Then 0.02 ml of 0.2 mM substrate was added, mixed and transferred into a pre-heated cell. The sample was allowed to equilibrate in the cuvette for 3-5 min at 37° C. against small changes in temperature and changes in the enzyme-inhibitor equilibria related to addition of substrate. After that, the linear increase of fluorescence was monitored over 3-5 min, and the slope (Vo or Vs) was obtained. Inhibitor concentrations were varied to collect data over Vs/Vo ratio ranging from 0.05 to 0.95. The values of Ki* were calculated by nonlinear weighted regression to the tight-binding equation according to Morrison and Walsh above:
(§5) Vs/Vo=[1/(2×Et)]×SQR[(Ki*+It−Et)^2+4×Ki*×Et]−(Ki*+It−Et)
(§6) wherein Et is the total enzyme concentration, and It is the total inhibitor concentration. The following Table I lists Ki* obtained for some representative examples: […]

[2] = biological target: T2, Human gelatinase-A (MMP-2) (Homo sapiens, UniProt P08253); assay: Biochemical assay (Protocol A), Ki at steady state, MMP-2; conditions: preincubation, 37° C., pH=7.4, read-out: Ki at steady state (Ki*) for inhibition of MMP-2
T2 sequence (P08253 110-660): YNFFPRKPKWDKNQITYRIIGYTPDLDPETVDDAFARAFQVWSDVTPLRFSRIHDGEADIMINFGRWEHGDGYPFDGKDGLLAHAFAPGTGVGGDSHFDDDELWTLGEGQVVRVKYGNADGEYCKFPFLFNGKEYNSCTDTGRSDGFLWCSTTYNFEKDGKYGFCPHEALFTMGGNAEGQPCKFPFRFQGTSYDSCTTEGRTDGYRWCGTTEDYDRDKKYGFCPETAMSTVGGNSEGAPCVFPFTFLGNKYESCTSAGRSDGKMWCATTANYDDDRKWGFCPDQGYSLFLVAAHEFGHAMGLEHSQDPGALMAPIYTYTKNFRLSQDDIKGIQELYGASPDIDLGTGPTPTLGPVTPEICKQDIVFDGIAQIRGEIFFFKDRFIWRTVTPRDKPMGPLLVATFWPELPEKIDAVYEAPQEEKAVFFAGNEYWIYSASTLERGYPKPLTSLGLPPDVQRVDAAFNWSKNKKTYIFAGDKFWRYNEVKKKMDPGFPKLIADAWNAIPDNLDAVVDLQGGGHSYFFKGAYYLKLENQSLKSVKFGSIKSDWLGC
Protocol: as §1, §2, §3, §4, §5, §6

[3] = biological target: T3, Human stromelysin-1-255 (MMP-3) (Homo sapiens, UniProt P08254); assay: Biochemical assay (Protocol A), Ki at steady state, MMP-3; conditions: preincubation, 37° C., pH=7.4, read-out: Ki at steady state (Ki*) for inhibition of MMP-3
T3 construct: host or cells: E. coli
Protocol: as §1, §2, §3, §4, §5, §6

T3 sequence (P08254 100-255 limits assumed): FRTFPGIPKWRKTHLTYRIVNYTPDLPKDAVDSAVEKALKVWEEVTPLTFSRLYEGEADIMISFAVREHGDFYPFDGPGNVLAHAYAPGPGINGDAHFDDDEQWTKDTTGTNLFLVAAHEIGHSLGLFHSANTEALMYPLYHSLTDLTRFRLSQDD

SMILES | Ki [1] [µM] | Ki [2] [µM] | Ki [3] [µM]
CC(C)C[C@@H](C(=O)NC(c1ccccc1)c1ccccc1)[C@H](N)C(=O)NO [Example 25, (3S-Amino-4-hydroxyamino-2R-isobutyl)succinyl-diphenylmethylamide] | 0.076 | 0.19 | 2.3
COc1ccc(CCC[C@@H](C(=O)N2CCOCC2)[C@H](NS(=O)(=O)c2ccc(OC)cc2)C(=O)NO)cc1 [Example 20, (4-Hydroxyamino-3S-(4-methoxyphenylsulfonyl)amino-2R-(4-methoxy)phenpropyl)succinyl-morpholinamide] | 2 | 0.04 | 0.39
CC(C)(C)OC(=O)N[C@H](C(=O)NO)[C@@H](CC1CCCC1)C(=O)N1CCN(Cc2ccc3c(c2)OCO3)CC1 [Example 26, (3S-tert-Butoxycarbonylamino-2R-cyclopentylmethyl-4-hydroxyamino)succinyl-(4-piperonyl)piperazinamide] | 0.071 | 0.1 | 0.6
COc1ccc(CCC[C@@H](C(=O)N2CCOCC2)[C@H](NC(=O)OC(C)(C)C)C(=O)NO)cc1 [Example 15, (3S-tert-Butoxycarbonylamino-4-hydroxyamino-2R-(4-methoxy)phenpropyl)succinyl-morpholinamide] | 17 | 0.63 | 6.5
COc1ccc(CCC[C@@H](C(=O)N2CCCCC2)[C@H](NC(=O)OC(C)(C)C)C(=O)NO)cc1 [Example 17, (3S-tert-Butoxycarbonylamino-4-hydroxyamino-2R-(4-methoxy)phenpropyl)succinyl-piperidinamide] | 9.4 | 0.61 | 4.3
CNC(=O)[C@H](Cc1ccccc1)N(C)C(=O)[C@H](CC(C)C)[C@H](N)C(=O)NO [Example 44, (3S-Amino-4-hydroxyamino-2R-isobutyl)succinyl-N-methyl-N-(1S-methylaminocarbonyl-2-phenyl)ethylamide] | 0.0089 | 0.0023 | 0.21
COc1ccc(CCC[C@@H](C(=O)N2CCC(C(=O)NC(C)(C)C)CC2)[C@H](N)C(=O)NO)cc1 [Example 34, (3S-Amino-4-hydroxyamino-2R-(4-methoxy)phenpropyl)succinyl-(4-tert-butylaminocarbonyl)piperidinamide] | 2.4 | 0.021 | 1.4
COc1ccc(CCC[C@@H](C(=O)N2CCCCC2)[C@H](NCc2cccnc2)C(=O)NO)cc1 [Example 39, (4-Hydroxyamino-2R-(4-methoxy)phenpropyl-3S-(3-pyridyl)methylamino)succinyl-piperidinamide] | 0.76 | 0.09 | 0.806
CC(C)C[C@@H](C(=O)NC(C1CCCCC1)C1CCCCC1)[C@H](N)C(=O)NO [Example 24, (3S-Amino-4-hydroxyamino-2R-isobutyl)succinyl-dicyclohexylmethylamide] | 0.17 | 0.4 | 11

Results, then the compound that gave them:

Ki [1] [µM] | Ki [2] [µM] | Ki [3] [µM] | SMILES
0.0046 | 0.028 | 0.14 | CS(=O)(=O)N[C@H](C(=O)NO)[C@@H](CC1CCCC1)C(=O)N1CCN(Cc2ccc3c(c2)OCO3)CC1 [Example 47, (2R-Cyclopentylmethyl-4-hydroxyamino-3S-(methylsulfonyl)amino)succinyl-(4-piperonyl)piperazinamide]
> 10 | 0.46 | 6.6 | COc1ccc(CCC[C@@H](C(=O)N[C@@H](C)C2CCCCC2)[C@H](N)C(=O)NO)cc1 [Example 33, (3S-Amino-4-hydroxyamino-2R-(4-methoxy)phenpropyl)succinyl-(1S-cyclohexylethyl)amide]
0.0036 | 0.025 | 0.27 | CN(C)[C@H](C(=O)NO)[C@@H](CC1CCCC1)C(=O)N1CCCCC1 [Example 30, (2R-Cyclopentylmethyl-3S-N,N-dimethylamino-4-hydroxyamino)succinyl-piperidinamide]
0.0078 | 0.066 |  | O=C(NO)[C@@H](NS(=O)(=O)c1ccc(F)cc1)[C@@H](CC1CCCC1)C(=O)N1CCCCC1 [Example 61, (2R-Cyclopentylmethyl-3S-(4-fluorophenylsulfonyl)amino-4-hydroxyamino)succinylpiperidinamide]
2.6 | 0.037 | 0.5 | COc1ccc(CCC[C@@H](C(=O)N[C@H](C)C2CCCCC2)[C@H](N)C(=O)NO)cc1 [Example 32, (3S-Amino-4-hydroxyamino-2R-(4-methoxy)phenpropyl)succinyl-(1R-cyclohexylethyl)amide]
0.003 | 0.016 | 0.145 | COc1ccc(S(=O)(=O)N[C@H](C(=O)NO)[C@@H](CC2CCCC2)C(=O)N2CCCCC2)cc1 [Example 23, (2R-Cyclopentylmethyl-4-hydroxyamino-3S-(4-methoxyphenylsulfonyl)amino)succinyl-piperidinamide]
0.0018 | 0.0026 | 0.035 | COc1ccc(S(=O)(=O)N[C@H](C(=O)NO)[C@@H](CC2CCCC2)C(=O)N2CCN(Cc3ccc4c(c3)OCO4)CC2)cc1 [Example 37, (2R-Cyclopentylmethyl-4-hydroxyamino-3S-(4-methoxyphenyl)sulfonylamino)succinyl-(4-piperonyl)piperazinamide]
1.4 | 0.016 | 0.76 | COc1ccc(CCC[C@@H](C(=O)N2CCN(c3ccccn3)CC2)[C@H](N)C(=O)NO)cc1 [Example 42, (3S-Amino-4-hydroxyamino-2R-(4-methoxy)phenpropyl)succinyl-4-(2-pyridyl)piperazinamide]
0.0029 | 0.008 | 0.031 | CN(C)[C@H](C(=O)NO)[C@@H](CC1CCCC1)C(=O)N1CCN(Cc2ccc3c(c2)OCO3)CC1 [Example 35, (2R-Cyclopentylmethyl-3S-N,N-dimethylamino-4-hydroxyamino)succinyl-(4-piperonyl)-piperazinamide]
